Experimental data published in PubChem BioAssay (NCI).
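Grown in 96-well plates, cells were treated for 48 hours with each compound at five concentrations. Insufficient inhibition: endpoint recorded as highest concentration tested. TGI: concentration producing complete growth inhibition.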

How the values were obtained:
Test in all cases: NCI anticancer screen, dose series, 48 h
[1] = tested on: OVCAR-5 ovarian
[2] = tested on: K-562 leukemia
[3] = tested on: SK-OV-3 ovarian
[4] = tested on: SK-MEL-2 melanoma
[5] = tested on: OVCAR-4 ovarian
[6] = tested on: SR leukemia
[7] = tested on: UACC-257 melanoma
[8] = tested on: 786-0 renal
[9] = tested on: TK-10 renal
[10] = tested on: BT-549 breast
[11] = tested on: UO-31 renal
[12] = tested on: RXF 393 renal
[13] = tested on: KM12 colon
[14] = tested on: RPMI-8226 leukemia
[15] = tested on: SNB-75 CNS
[16] = tested on: PC-3 prostate
[17] = tested on: UACC-62 melanoma
[18] = tested on: T-47D breast
[19] = tested on: LOX IMVI melanoma
[20] = tested on: A498 renal
[21] = tested on: HOP-92 NSCLC
[22] = tested on: MDA-MB-231 breast
[23] = tested on: SNB-19 CNS
[24] = tested on: CCRF-CEM leukemia
[25] = tested on: NCI/ADR-RES ovarian
[26] = tested on: SN12C renal
[27] = tested on: HOP-62 NSCLC
[28] = tested on: SF-539 CNS
[29] = tested on: HT29 colon
[30] = tested on: HCT-116 colon
[31] = tested on: SF-268 CNS
[32] = tested on: SK-MEL-28 melanoma
[33] = tested on: NCI-H23 lung
[34] = tested on: HCC-2998 colon
[35] = tested on: OVCAR-3 ovarian
[36] = tested on: A549 NSCLC
[37] = tested on: MDA-MB-435
[38] = tested on: HCT-15 colon
[39] = tested on: MCF7 breast
[40] = tested on: SF-295 CNS
[41] = tested on: ACHN renal
[42] = tested on: MALME-3M melanoma
[43] = tested on: NCI-H460 lung
[44] = tested on: DU-145 prostate
[45] = tested on: SW-620 colon
[46] = tested on: MDA-N
[47] = tested on: CAKI-1 renal
[48] = tested on: EKVX NSCLC
[49] = tested on: MOLT-4 leukemia
[50] = tested on: COLO 205 colon
[51] = tested on: HS 578T breast
[52] = tested on: SK-MEL-5 melanoma
[53] = tested on: OVCAR-8 ovarian
[54] = tested on: M14 melanoma
[55] = tested on: U251 CNS
[56] = tested on: NCI-H522 lung
[57] = tested on: IGROV1 ovarian

## O=C1/C(=C\c2cccc(Oc3ccccc3)c2)S(=O)(=O)C(c2ccccc2)N1c1cc(Cl)ccc1Cl (configuration not stated)
[1]
  TGI: 58.6 µM
[2]
  TGI: > 100 µM
[3]
  TGI: 88.3 µM
[4]
  TGI: 76.9 µM
[5]
  TGI: > 100 µM
[6]
  TGI: > 100 µM
[7]
  TGI: 47.9 µM
[8]
  TGI: 37.4 µM
[9]
  TGI: 57.3 µM
[10]
  TGI: 35.6 µM
[11]
  TGI: 39.6 µM
[12]
  TGI: 33.8 µM
[13]
  TGI: 76.9 µM
[14]
  TGI: > 100 µM
[15]
  TGI: 69.6 µM
[16]
  TGI: > 100 µM
[17]
  TGI: 36.7 µM
[18]
  TGI: 82.4 µM
[19]
  TGI: 23.8 µM
[20]
  TGI: > 100 µM
[21]
  TGI: 40.4 µM
[22]
  TGI: > 100 µM
[23]
  TGI: 35.7 µM
[24]
  TGI: 40.7 µM
[25]
  TGI: 94.4 µM
[26]
  TGI: 35 µM
[27]
  TGI: 43.3 µM
[28]
  TGI: > 100 µM
[29]
  TGI: > 100 µM
[30]
  TGI: 21.2 µM
[31]
  TGI: 42.3 µM
[32]
  TGI: 36.7 µM
[33]
  TGI: 44.3 µM
[34]
  TGI: 56.6 µM
[35]
  TGI: 41.9 µM
[36]
  TGI: > 100 µM
[37]
  TGI: 36.5 µM
[38]
  TGI: 74.6 µM
[39]
  TGI: 45.1 µM
[40]
  TGI: 33.1 µM
[41]
  TGI: 44.6 µM
[42]
  TGI: 42.4 µM
[43]
  TGI: > 100 µM
[44]
  TGI: 76.7 µM
[45]
  TGI: 10.8 µM
[46]
  TGI: 28.8 µM
[47]
  TGI: > 100 µM
[48]
  TGI: > 100 µM
[49]
  TGI: > 100 µM
[50]
  TGI: 48.4 µM
[51]
  TGI: 88.1 µM
[52]
  TGI: 33.3 µM
[53]
  TGI: 32.7 µM
[54]
  TGI: 44.1 µM
[55]
  TGI: > 100 µM
[56]
  TGI: 40 µM
[57]
  TGI: 56.2 µM
